Results taken from PubChem BioAssay (NCI).
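Interpolation was linear, between the two tested concentrations surrounding the appropriate level; five concentrations were tested over 48 hours in 96-well plates. GI50: concentration for 50% inhibition of growth. At the TGI there is no net growth.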

How the values were obtained:
Experiment in all cases: DTP human tumour cell line panel, 48 h
NCI-H226 lung = tested on: NCI-H226 lung
SNB-19 CNS = tested on: SNB-19 CNS
COLO 205 colon = tested on: COLO 205 colon
LOX IMVI melanoma = tested on: LOX IMVI melanoma
OVCAR-8 ovarian = tested on: OVCAR-8 ovarian
UACC-257 melanoma = tested on: UACC-257 melanoma
SK-MEL-2 melanoma = tested on: SK-MEL-2 melanoma
UACC-62 melanoma = tested on: UACC-62 melanoma
SF-268 CNS = tested on: SF-268 CNS
RXF 393 renal = tested on: RXF 393 renal
CCRF-CEM leukemia = tested on: CCRF-CEM leukemia
OVCAR-3 ovarian = tested on: OVCAR-3 ovarian
MCF7 breast = tested on: MCF7 breast
SK-MEL-28 melanoma = tested on: SK-MEL-28 melanoma
NCI-H522 lung = tested on: NCI-H522 lung
HOP-62 NSCLC = tested on: HOP-62 NSCLC
SW-620 colon = tested on: SW-620 colon
OVCAR-5 ovarian = tested on: OVCAR-5 ovarian
NCI/ADR-RES ovarian = tested on: NCI/ADR-RES ovarian
IGROV1 ovarian = tested on: IGROV1 ovarian
MOLT-4 leukemia = tested on: MOLT-4 leukemia
SR leukemia = tested on: SR leukemia
DU-145 prostate = tested on: DU-145 prostate
HCT-116 colon = tested on: HCT-116 colon
HL-60(TB) leukemia = tested on: HL-60(TB) leukemia
786-0 renal = tested on: 786-0 renal
MDA-MB-435 = tested on: MDA-MB-435
UO-31 renal = tested on: UO-31 renal
NCI-H460 lung = tested on: NCI-H460 lung
HS 578T breast = tested on: HS 578T breast
U251 CNS = tested on: U251 CNS
A498 renal = tested on: A498 renal
BT-549 breast = tested on: BT-549 breast
SK-OV-3 ovarian = tested on: SK-OV-3 ovarian
TK-10 renal = tested on: TK-10 renal
SN12C renal = tested on: SN12C renal
HOP-92 NSCLC = tested on: HOP-92 NSCLC
MALME-3M melanoma = tested on: MALME-3M melanoma
RPMI-8226 leukemia = tested on: RPMI-8226 leukemia
NCI-H23 lung = tested on: NCI-H23 lung
OVCAR-4 ovarian = tested on: OVCAR-4 ovarian
CAKI-1 renal = tested on: CAKI-1 renal
K-562 leukemia = tested on: K-562 leukemia
HCT-15 colon = tested on: HCT-15 colon
ACHN renal = tested on: ACHN renal
HT29 colon = tested on: HT29 colon
MDA-MB-231 breast = tested on: MDA-MB-231 breast
SF-295 CNS = tested on: SF-295 CNS
T-47D breast = tested on: T-47D breast
SNB-75 CNS = tested on: SNB-75 CNS
KM12 colon = tested on: KM12 colon
HCC-2998 colon = tested on: HCC-2998 colon
A549 NSCLC = tested on: A549 NSCLC
M14 melanoma = tested on: M14 melanoma
SK-MEL-5 melanoma = tested on: SK-MEL-5 melanoma
SF-539 CNS = tested on: SF-539 CNS
PC-3 prostate = tested on: PC-3 prostate

`COc1cccc(C2=C(c3cn(C)c4ccc(Cl)cc34)C(=O)NC2=O)c1` gave a GI50 (NCI-H226 lung) of 5.17 µM, a TGI (NCI-H226 lung) of 19.1 µM and a GI50 (SNB-19 CNS) of 13.4 µM. For the same compound, the TGI (SNB-19 CNS) was greater than 25 µM, the GI50 (COLO 205 colon) was 3.92 µM and the TGI (COLO 205 colon) was 8.57 µM. The GI50 (LOX IMVI melanoma) was 4.92 µM, the TGI (LOX IMVI melanoma) was greater than 16.1 µM and the GI50 (OVCAR-8 ovarian) was 6.61 µM. The TGI (OVCAR-8 ovarian) was greater than 20.3 µM, the GI50 (UACC-257 melanoma) was 9.86 µM and the TGI (UACC-257 melanoma) was greater than 21.5 µM. It also gave a GI50 (SK-MEL-2 melanoma) of 7.24 µM, a TGI (SK-MEL-2 melanoma) greater than 18 µM and a GI50 (UACC-62 melanoma) of 5.67 µM. For the same compound, the TGI (UACC-62 melanoma) was 12.8 µM, the GI50 (SF-268 CNS) was 11.5 µM and the TGI (SF-268 CNS) was greater than 25 µM. The GI50 (RXF 393 renal) was 3.66 µM, the TGI (RXF 393 renal) was 8.33 µM and the GI50 (CCRF-CEM leukemia) was 4.39 µM. It also gave a TGI (CCRF-CEM leukemia) of 15.7 µM, a GI50 (OVCAR-3 ovarian) of 7.47 µM and a TGI (OVCAR-3 ovarian) greater than 17.2 µM. It also gave a GI50 (MCF7 breast) of 2.85 µM, a TGI (MCF7 breast) greater than 25 µM and a GI50 (SK-MEL-28 melanoma) of 7.87 µM. It also gave a TGI (SK-MEL-28 melanoma) greater than 20.5 µM, a GI50 (NCI-H522 lung) of 5.48 µM and a TGI (NCI-H522 lung) greater than 17.9 µM. For the same compound, the GI50 (HOP-62 NSCLC) was 7.22 µM, the TGI (HOP-62 NSCLC) was 21.4 µM and the GI50 (SW-620 colon) was 8.79 µM. It also gave a TGI (SW-620 colon) greater than 25 µM, a GI50 (OVCAR-5 ovarian) of 15.3 µM and a TGI (OVCAR-5 ovarian) greater than 25 µM. For the same compound, the GI50 (NCI/ADR-RES ovarian) was 6.13 µM, the TGI (NCI/ADR-RES ovarian) was 19.8 µM and the GI50 (IGROV1 ovarian) was 7.62 µM. For the same compound, the TGI (IGROV1 ovarian) was greater than 17.5 µM, the GI50 (MOLT-4 leukemia) was 5.14 µM and the TGI (MOLT-4 leukemia) was greater than 18.8 µM. For the same compound, the GI50 (SR leukemia) was 5.77 µM, the TGI (SR leukemia) was greater than 18.6 µM and the GI50 (DU-145 prostate) was 10.9 µM. The TGI (DU-145 prostate) was greater than 22.1 µM, the GI50 (HCT-116 colon) was 3.8 µM and the TGI (HCT-116 colon) was greater than 13.7 µM. It also gave a GI50 (HL-60(TB) leukemia) of 6.84 µM, a TGI (HL-60(TB) leukemia) of 14.6 µM and a GI50 (786-0 renal) of 6.5 µM. For the same compound, the TGI (786-0 renal) was greater than 18.9 µM, the GI50 (MDA-MB-435) was 6.48 µM and the TGI (MDA-MB-435) was greater than 16.4 µM. For the same compound, the GI50 (UO-31 renal) was 5.07 µM, the TGI (UO-31 renal) was greater than 17.4 µM and the GI50 (NCI-H460 lung) was 7.57 µM. For the same compound, the TGI (NCI-H460 lung) was greater than 19.1 µM, the GI50 (HS 578T breast) was 6.76 µM and the TGI (HS 578T breast) was greater than 25 µM. The GI50 (U251 CNS) was 5.94 µM, the TGI (U251 CNS) was greater than 16.8 µM and the GI50 (A498 renal) was 4.03 µM. For the same compound, the TGI (A498 renal) was 12.5 µM, the GI50 (BT-549 breast) was 7.01 µM and the TGI (BT-549 breast) was greater than 19 µM. For the same compound, the GI50 (SK-OV-3 ovarian) was 7.29 µM, the TGI (SK-OV-3 ovarian) was greater than 22 µM and the GI50 (TK-10 renal) was 10.4 µM. For the same compound, the TGI (TK-10 renal) was greater than 23.8 µM, the GI50 (SN12C renal) was 4.96 µM and the TGI (SN12C renal) was 14.2 µM. It also gave a GI50 (HOP-92 NSCLC) greater than 25 µM, a TGI (HOP-92 NSCLC) greater than 25 µM and a GI50 (MALME-3M melanoma) of 13.9 µM. The TGI (MALME-3M melanoma) was greater than 20 µM, the GI50 (RPMI-8226 leukemia) was 5.9 µM and the TGI (RPMI-8226 leukemia) was greater than 20.4 µM. The GI50 (NCI-H23 lung) was 7.15 µM, the TGI (NCI-H23 lung) was greater than 19.1 µM and the GI50 (OVCAR-4 ovarian) was 6.96 µM. It also gave a TGI (OVCAR-4 ovarian) greater than 25 µM, a GI50 (CAKI-1 renal) of 4.87 µM and a TGI (CAKI-1 renal) of 16.8 µM. The GI50 (K-562 leukemia) was 6.54 µM, the TGI (K-562 leukemia) was greater than 19.8 µM and the GI50 (HCT-15 colon) was 6.4 µM. For the same compound, the TGI (HCT-15 colon) was greater than 25 µM, the GI50 (ACHN renal) was 6.65 µM and the TGI (ACHN renal) was greater than 19.6 µM. It also gave a GI50 (HT29 colon) of 4.14 µM, a TGI (HT29 colon) greater than 24.1 µM and a GI50 (MDA-MB-231 breast) of 8.3 µM. The TGI (MDA-MB-231 breast) was greater than 20.6 µM, the GI50 (SF-295 CNS) was 5.28 µM and the TGI (SF-295 CNS) was greater than 15.1 µM. For the same compound, the GI50 (T-47D breast) was 4.19 µM, the TGI (T-47D breast) was 17.4 µM and the GI50 (SNB-75 CNS) was 3.1 µM. For the same compound, the TGI (SNB-75 CNS) was greater than 25 µM, the GI50 (KM12 colon) was 4.95 µM and the TGI (KM12 colon) was 11.4 µM. For the same compound, the GI50 (HCC-2998 colon) was 9.02 µM, the TGI (HCC-2998 colon) was greater than 23 µM and the GI50 (A549 NSCLC) was 6.84 µM. The TGI (A549 NSCLC) was greater than 25 µM, the GI50 (M14 melanoma) was 10.3 µM and the TGI (M14 melanoma) was greater than 25 µM. It also gave a GI50 (SK-MEL-5 melanoma) of 3.63 µM, a TGI (SK-MEL-5 melanoma) of 8.35 µM and a GI50 (SF-539 CNS) of 6.06 µM. The TGI (SF-539 CNS) was greater than 15.9 µM, the GI50 (PC-3 prostate) was 6.16 µM and the TGI (PC-3 prostate) was greater than 19.6 µM.
